In article PMC9414507, “Drug Repurposing Based on Protozoan Proteome: In Vitro Evaluation of In Silico Screened Compounds against Toxoplasma gondii” (Pharmaceutics, 2022):
Like-named read-outs stand apart in the source and are kept apart here.

Columns and labels:
[1] = ref Pandemic Response Box and COVID Box supporting information; cited from earlier work
[2] = Cytotoxicity in mammalian cells (MTT assay); type: cell-based; settings: human, read-out: CC50 (Half Cytotoxic Concentration against HFF cells)
Procedure: HFF were seeded at 5 × 10^4 cells/well in 96-well microplates and incubated overnight to adhere to the plate. After that, the cells were incubated in the presence of increasing concentrations of the compounds for 72 h at 37 °C in a 5% CO2 humidified incubator. The viability of the cells was determined by the MTT assay as previously described. The medium in each well was replaced by PBS (100 µL/well), MTT (5 mg/mL) was added (20 µL/well), and the plate was incubated for 4 h at 37 °C. […] HFF incubated in D2 without drug treatment were used as viability control. Viability of 100% was expressed based on the optical density of untreated HFF cells, after normalization.

SMILES	Rule of Five [1]	CC50 at 72 h ([2]; HFF) [µM]	CC50 at 72 h ([2]; HFF cells) [µM]
Nc1nc(F)nc2c1ncn2[C@@H]1O[C@H](CO)[C@@H](O)[C@@H]1O [Fludarabine]	4	2.14	
COc1cccc2c1C(=O)c1c(O)c3c(c(O)c1C2=O)C[C@@](O)(C(=O)CO)C[C@@H]3O[C@H]1C[C@H](N)[C@H](O)[C@H](C)O1 [Doxorubicin]	1		
NC(=O)c1ncn([C@@H]2O[C@H](CO)[C@@H](O)[C@H]2O)n1 [Ribavirin]	4		
CC(C)C[C@H](NC(=O)[C@H](Cc1ccccc1)NC(=O)c1cnccn1)B(O)O [Bortezomib]	4	0.079	
C[C@H]1O[C@@H](O[C@H]2[C@@H](O)C[C@H](O[C@H]3[C@@H](O)C[C@H](O[C@H]4CC[C@@]5(C)[C@H](CC[C@@H]6[C@@H]5CC[C@]5(C)[C@@H](C7=CC(=O)OC7)CC[C@]65O)C4)O[C@@H]3C)O[C@@H]2C)C[C@H](O)[C@@H]1O [Digitoxin]	2		
C=CCNc1nc(NCC=C)nc(N2CCN(C(c3ccc(F)cc3)c3ccc(F)cc3)CC2)n1 [Almitrine]	3		> 20
COc1cc(Cc2cnc(N)nc2N)cc(OC)c1OC [Trimethoprim]	4		
CCCC(CCC)C(=O)O [Valproic acid]	4		
C[C@H]1O[C@@H](O[C@H]2[C@@H](O)C[C@H](O[C@H]3[C@@H](O)C[C@H](O[C@H]4CC[C@@]5(C)[C@H](CC[C@@H]6[C@@H]5C[C@@H](O)[C@]5(C)[C@@H](C7=CC(=O)OC7)CC[C@]65O)C4)O[C@@H]3C)O[C@@H]2C)C[C@H](O)[C@@H]1O [Digoxin]	1		
COc1c(C)c2c(c(O)c1C/C=C(\C)CCC(=O)O)C(=O)OC2 [Mycophenolic acid]	4		
C[C@H]1COc2c(N3CCN(C)CC3)c(F)cc3c(=O)c(C(=O)O)cn1c23 [Levofloxacin]	4		
